Data from PubChem BioAssay (NCI).
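Five concentrations, 48 hours, 96-well plates. TGI: concentration producing complete growth inhibition.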

Experiments:
Assay in all cases: NCI tumour cell line growth inhibition, 48 h
A498 renal = test system: A498 renal
MOLT-4 leukemia = test system: MOLT-4 leukemia
K-562 leukemia = test system: K-562 leukemia
COLO 205 colon = test system: COLO 205 colon
NCI-H226 lung = test system: NCI-H226 lung
RPMI-8226 leukemia = test system: RPMI-8226 leukemia
SF-268 CNS = test system: SF-268 CNS
NCI/ADR-RES ovarian = test system: NCI/ADR-RES ovarian
OVCAR-5 ovarian = test system: OVCAR-5 ovarian
IGROV1 ovarian = test system: IGROV1 ovarian
TK-10 renal = test system: TK-10 renal
HS 578T breast = test system: HS 578T breast
MCF7 breast = test system: MCF7 breast
EKVX NSCLC = test system: EKVX NSCLC
OVCAR-3 ovarian = test system: OVCAR-3 ovarian
SK-MEL-5 melanoma = test system: SK-MEL-5 melanoma
U251 CNS = test system: U251 CNS
M14 melanoma = test system: M14 melanoma
MDA-N = test system: MDA-N
SK-MEL-2 melanoma = test system: SK-MEL-2 melanoma
LOX IMVI melanoma = test system: LOX IMVI melanoma
SN12C renal = test system: SN12C renal
SW-620 colon = test system: SW-620 colon
NCI-H460 lung = test system: NCI-H460 lung
KM12 colon = test system: KM12 colon
OVCAR-8 ovarian = test system: OVCAR-8 ovarian
CCRF-CEM leukemia = test system: CCRF-CEM leukemia
BT-549 breast = test system: BT-549 breast
HOP-62 NSCLC = test system: HOP-62 NSCLC
HCT-15 colon = test system: HCT-15 colon
HT29 colon = test system: HT29 colon
HCT-116 colon = test system: HCT-116 colon
CAKI-1 renal = test system: CAKI-1 renal
ACHN renal = test system: ACHN renal
T-47D breast = test system: T-47D breast
786-0 renal = test system: 786-0 renal
A549 NSCLC = test system: A549 NSCLC
OVCAR-4 ovarian = test system: OVCAR-4 ovarian
SK-OV-3 ovarian = test system: SK-OV-3 ovarian
NCI-H23 lung = test system: NCI-H23 lung
SF-295 CNS = test system: SF-295 CNS
SNB-19 CNS = test system: SNB-19 CNS
DU-145 prostate = test system: DU-145 prostate
UACC-257 melanoma = test system: UACC-257 melanoma
SNB-75 CNS = test system: SNB-75 CNS
PC-3 prostate = test system: PC-3 prostate
SK-MEL-28 melanoma = test system: SK-MEL-28 melanoma
NCI-H522 lung = test system: NCI-H522 lung
MDA-MB-435 = test system: MDA-MB-435
UACC-62 melanoma = test system: UACC-62 melanoma
RXF 393 renal = test system: RXF 393 renal
HL-60(TB) leukemia = test system: HL-60(TB) leukemia
MDA-MB-231 breast = test system: MDA-MB-231 breast
SF-539 CNS = test system: SF-539 CNS
HCC-2998 colon = test system: HCC-2998 colon
MALME-3M melanoma = test system: MALME-3M melanoma
UO-31 renal = test system: UO-31 renal

SMILES: CCOP(=O)(/C=C/n1ccc(N)nc1=O)OCC
- TGI (A498 renal): > 100 µM
- TGI (MOLT-4 leukemia): > 100 µM
- TGI (K-562 leukemia): > 100 µM
- TGI (COLO 205 colon): > 100 µM
- TGI (NCI-H226 lung): > 100 µM
- TGI (RPMI-8226 leukemia): > 100 µM
- TGI (SF-268 CNS): > 100 µM
- TGI (NCI/ADR-RES ovarian): > 100 µM
- TGI (OVCAR-5 ovarian): > 100 µM
- TGI (IGROV1 ovarian): > 100 µM
- TGI (TK-10 renal): > 100 µM
- TGI (HS 578T breast): > 100 µM
- TGI (MCF7 breast): > 100 µM
- TGI (EKVX NSCLC): > 100 µM
- TGI (OVCAR-3 ovarian): > 100 µM
- TGI (SK-MEL-5 melanoma): > 100 µM
- TGI (U251 CNS): > 100 µM
- TGI (M14 melanoma): > 100 µM
- TGI (MDA-N): > 100 µM
- TGI (SK-MEL-2 melanoma): > 100 µM
- TGI (LOX IMVI melanoma): > 100 µM
- TGI (SN12C renal): > 100 µM
- TGI (SW-620 colon): > 100 µM
- TGI (NCI-H460 lung): > 100 µM
- TGI (KM12 colon): > 100 µM
- TGI (OVCAR-8 ovarian): > 100 µM
- TGI (CCRF-CEM leukemia): > 100 µM
- TGI (BT-549 breast): > 100 µM
- TGI (HOP-62 NSCLC): > 100 µM
- TGI (HCT-15 colon): > 100 µM
- TGI (HT29 colon): > 100 µM
- TGI (HCT-116 colon): > 100 µM
- TGI (CAKI-1 renal): > 100 µM
- TGI (ACHN renal): > 100 µM
- TGI (T-47D breast): > 100 µM
- TGI (786-0 renal): > 100 µM
- TGI (A549 NSCLC): > 100 µM
- TGI (OVCAR-4 ovarian): > 100 µM
- TGI (SK-OV-3 ovarian): > 100 µM
- TGI (NCI-H23 lung): > 100 µM
- TGI (SF-295 CNS): > 100 µM
- TGI (SNB-19 CNS): > 100 µM
- TGI (DU-145 prostate): > 100 µM
- TGI (UACC-257 melanoma): > 100 µM
- TGI (SNB-75 CNS): > 100 µM
- TGI (PC-3 prostate): > 100 µM
- TGI (SK-MEL-28 melanoma): > 100 µM
- TGI (NCI-H522 lung): > 100 µM
- TGI (MDA-MB-435): > 100 µM
- TGI (UACC-62 melanoma): > 100 µM
- TGI (RXF 393 renal): > 100 µM
- TGI (HL-60(TB) leukemia): > 100 µM
- TGI (MDA-MB-231 breast): > 100 µM
- TGI (SF-539 CNS): > 100 µM

SMILES: CCN(CC)CCCNc1[nH]ncc2cc3c(nc4ccccc43)c(C)c12
- TGI (A498 renal): 28.7 µM
- TGI (MOLT-4 leukemia): 5.43 µM
- TGI (K-562 leukemia): > 100 µM
- TGI (HCC-2998 colon): 23.2 µM
- TGI (COLO 205 colon): 23.4 µM
- TGI (NCI-H226 lung): 25.3 µM
- TGI (RPMI-8226 leukemia): 31.3 µM
- TGI (SF-268 CNS): 20.6 µM
- TGI (NCI/ADR-RES ovarian): > 100 µM
- TGI (OVCAR-5 ovarian): 50.4 µM
- TGI (IGROV1 ovarian): 15.7 µM
- TGI (TK-10 renal): 36.2 µM
- TGI (HS 578T breast): 29.2 µM
- TGI (MCF7 breast): 38.4 µM
- TGI (EKVX NSCLC): 23.5 µM
- TGI (OVCAR-3 ovarian): 28.6 µM
- TGI (SK-MEL-5 melanoma): 38 µM
- TGI (U251 CNS): 24.4 µM
- TGI (M14 melanoma): 52.3 µM
- TGI (MDA-N): 30.8 µM
- TGI (MALME-3M melanoma): 31.4 µM
- TGI (SK-MEL-2 melanoma): > 100 µM
- TGI (LOX IMVI melanoma): 20.6 µM
- TGI (SN12C renal): 19.9 µM
- TGI (SW-620 colon): 17.4 µM
- TGI (NCI-H460 lung): 18.1 µM
- TGI (KM12 colon): 18.5 µM
- TGI (OVCAR-8 ovarian): 24.5 µM
- TGI (CCRF-CEM leukemia): 21.3 µM
- TGI (BT-549 breast): 32.7 µM
- TGI (HOP-62 NSCLC): 42.2 µM
- TGI (HCT-15 colon): 30 µM
- TGI (HT29 colon): 15.8 µM
- TGI (HCT-116 colon): 17.4 µM
- TGI (CAKI-1 renal): > 100 µM
- TGI (ACHN renal): 21.9 µM
- TGI (T-47D breast): 29.4 µM
- TGI (786-0 renal): 17.3 µM
- TGI (A549 NSCLC): 26.7 µM
- TGI (SK-OV-3 ovarian): 34.3 µM
- TGI (NCI-H23 lung): 28 µM
- TGI (SF-295 CNS): 32.2 µM
- TGI (SNB-19 CNS): 27.5 µM
- TGI (DU-145 prostate): 24.3 µM
- TGI (UACC-257 melanoma): 29.5 µM
- TGI (SNB-75 CNS): 26.4 µM
- TGI (PC-3 prostate): 25.5 µM
- TGI (SK-MEL-28 melanoma): 32.5 µM
- TGI (NCI-H522 lung): 16.3 µM
- TGI (MDA-MB-435): 36.1 µM
- TGI (UACC-62 melanoma): 29.4 µM
- TGI (UO-31 renal): 24.5 µM
- TGI (HL-60(TB) leukemia): 27.1 µM
- TGI (MDA-MB-231 breast): 19.4 µM
- TGI (SF-539 CNS): 34.1 µM
